ChEMBL document CHEMBL3396992, “Synthesis and biological evaluation of pyrazolylthiazole carboxylic acids as potent anti-inflammatory-antimicrobial agents” (2015)
≈ marks a conversion by molar mass, not a printed value. Calls of active or inactive are those of the source. The calls are words filed in the database; no cut-off is given here.

What was measured:
[1] = system: Rattus norvegicus; assay: Antiinflammatory activity against carrageenan-induced paw edema male Wistar albino rat assessed as edema volume at 50 mg/kg, po administered 30 mins prior to carrageenan-challenge measured after 1 hr (reference value: 1.11 +/- 0.12 mL); type: functional
[2] = system: Rattus norvegicus; assay: Antiinflammatory activity against carrageenan-induced paw edema male Wistar albino rat assessed as edema volume at 50 mg/kg, ip administered 30 mins prior to carrageenan-challenge measured after 2 hrs (reference value: 1.21 +/- 0.16 mL); type: functional; settings: route intraperitoneal
[3] = system: Rattus norvegicus; assay: Antiinflammatory activity against carrageenan-induced paw edema male Wistar albino rat assessed as edema volume at 50 mg/kg, ip administered 30 mins prior to carrageenan-challenge measured after 3 hrs (reference value: 1.73 +/- 0.09 mL); type: functional; settings: route intraperitoneal
[4] = system: Rattus norvegicus; assay: Antiinflammatory activity against carrageenan-induced paw edema male Wistar albino rat assessed as edema volume at 50 mg/kg, ip administered 30 mins prior to carrageenan-challenge measured after 4 hrs (reference value: 1.88 +/- 0.20 mL); type: functional; settings: route intraperitoneal
[5] = system: Rattus norvegicus; assay: Antiinflammatory activity against carrageenan-induced paw edema male Wistar albino rat at 50 mg/kg, ip administered 30 mins prior to carrageenan-challenge measured after 1 hr relative to control; type: functional; settings: route intraperitoneal
[6] = system: Rattus norvegicus; assay: Antiinflammatory activity against carrageenan-induced paw edema male Wistar albino rat at 50 mg/kg, ip administered 30 mins prior to carrageenan-challenge measured after 2 hrs relative to control; type: functional; settings: route intraperitoneal
[7] = system: Rattus norvegicus; assay: Antiinflammatory activity against carrageenan-induced paw edema male Wistar albino rat at 50 mg/kg, ip administered 30 mins prior to carrageenan-challenge measured after 3 hrs relative to control; type: functional; settings: route intraperitoneal
[8] = system: Rattus norvegicus; assay: Antiinflammatory activity against carrageenan-induced paw edema male Wistar albino rat at 50 mg/kg, ip administered 30 mins prior to carrageenan-challenge measured after 4 hrs relative to control; type: functional; settings: route intraperitoneal
[9] = system: Staphylococcus aureus; assay: Antimicrobial activity against Staphylococcus aureus MTCC 96 assessed as growth inhibition at 4 mg/ml after 24 hrs by agar well diffusion method; type: functional; settings: for zone of inhibition at 4000 µg/mL: MTCC 96, 24 h, read-out: DIZ
[10] = system: Staphylococcus aureus; assay: Antimicrobial activity against Staphylococcus aureus MTCC 96 assessed as growth inhibition after 24 hrs by agar well diffusion method; type: functional
[11] = system: Bacillus subtilis; assay: Antimicrobial activity against Bacillus subtilis MTCC 121 assessed as growth inhibition at 4 mg/ml after 24 hrs by agar well diffusion method; type: functional; settings: for zone of inhibition at 4000 µg/mL: MTCC 121, 24 h, read-out: DIZ
[12] = system: Bacillus subtilis; assay: Antimicrobial activity against Bacillus subtilis MTCC 121 assessed as growth inhibition after 24 hrs by agar well diffusion method; type: functional
[13] = system: Escherichia coli; assay: Antimicrobial activity against Escherichia coli MTCC 1652 assessed as growth inhibition at 4 mg/ml after 24 hrs by agar well diffusion method; type: functional, organism-based
[14] = system: Saccharomyces cerevisiae; assay: Antimicrobial activity against Saccharomyces cerevisiae MTCC 170 assessed as growth inhibition at 4 mg/ml after 24 hrs by agar well diffusion method; type: functional; settings: for zone of inhibition at 4000 µg/mL: MTCC 170, 24 h, read-out: DIZ
[15] = system: Saccharomyces cerevisiae; assay: Antimicrobial activity against Saccharomyces cerevisiae MTCC 170 assessed as growth inhibition after 24 hrs by agar well diffusion method; type: functional
[16] = system: Candida albicans; assay: Antimicrobial activity against Candida albicans MTCC 3017 assessed as growth inhibition at 4 mg/ml after 24 hrs by agar well diffusion method; type: functional; settings: MTCC 3017, 24 h, read-out: DIZ
[17] = system: Candida albicans; assay: Antimicrobial activity against Candida albicans MTCC 3017 assessed as growth inhibition after 24 hrs by agar well diffusion method; type: functional; settings: MTCC 3017, 24 h
[18] = system: Pseudomonas aeruginosa; settings: MTCC 741, 4 mg/ml
Description: Antimicrobial activity against Pseudomonas aeruginosa MTCC 741 assessed as growth inhibition at 4 mg/ml after 24 hrs by agar well diffusion method

## CCOC(=O)c1sc(-c2cn(-c3ccccc3)nc2-c2ccc(F)cc2)nc1-c1ccccc1
[1]
  Activity: 0.26 mL
[2]
  Activity: 0.32 mL
[3]
  Activity: 0.33 mL
[4]
  Activity: 0.45 mL
[5]
  Activity: 76.57%
[6]
  Activity: 73.55%
[7]
  Activity: 80.92%
[8]
  Activity: 76.06%
[9]
  diameter of the inhibition zone (DIZ): inactive
[10]
  MIC: inactive
[11]
  diameter of the inhibition zone (DIZ): inactive
[12]
  MIC: inactive
[13]
  diameter of the inhibition zone (DIZ): inactive
[14]
  diameter of the inhibition zone (DIZ): inactive
[15]
  MIC: inactive
[16]
  zone of inhibition at 4000 µg/mL: 16.6 mm
[17]
  MIC: 50 mg/L (≈ 106 µM)
[18]
  DIZ: inactive

## O=C(O)c1sc(-c2cn(-c3ccccc3)nc2-c2ccc(Cl)cc2)nc1-c1ccc(Cl)cc1
[1]
  Activity: 0.26 mL
[2]
  Activity: 0.23 mL
[3]
  Activity: 0.43 mL
[4]
  Activity: 0.28 mL
[5]
  Activity: 76.57%
[6]
  Activity: 80.99%
[7]
  Activity: 75.14%
[8]
  Activity: 85.1%
[9]
  diameter of the inhibition zone (DIZ): inactive
[10]
  MIC: inactive
[11]
  zone of inhibition at 4000 µg/mL: 16.6 mm
[12]; MTCC 121, 24 h
  MIC: 50 mg/L (≈ 102 µM)
[13]
  diameter of the inhibition zone (DIZ): inactive
[14]
  zone of inhibition at 4000 µg/mL: 24.6 mm
[15]; MTCC 170, 24 h
  MIC: 12.5 mg/L (≈ 25.4 µM)
[16]
  zone of inhibition at 4000 µg/mL: 23.6 mm
[17]
  MIC: 12.5 mg/L (≈ 25.4 µM)
[18]
  DIZ: inactive

## CCOC(=O)c1sc(-c2cn(-c3ccccc3)nc2-c2ccc(F)cc2)nc1-c1ccc(Cl)cc1
[1]
  Activity: 0.17 mL
[2]
  Activity: 0.22 mL
[3]
  Activity: 0.34 mL
[4]
  Activity: 0.26 mL
[5]
  Activity: 84.68%
[6]
  Activity: 81.81%
[7]
  Activity: 80.34%
[8]
  Activity: 86.17%
[9]
  diameter of the inhibition zone (DIZ): inactive
[10]
  MIC: inactive
[11]
  diameter of the inhibition zone (DIZ): inactive
[12]
  MIC: inactive
[13]
  diameter of the inhibition zone (DIZ): inactive
[14]
  diameter of the inhibition zone (DIZ): inactive
[15]
  MIC: inactive
[16]
  zone of inhibition at 4000 µg/mL: 17.6 mm
[17]
  MIC: 50 mg/L (≈ 99.2 µM)
[18]
  DIZ: inactive

## COc1ccc(-c2nn(-c3ccccc3)cc2-c2nc(-c3ccc(OC)cc3)c(C(=O)O)s2)cc1
[1]
  Activity: 0.13 mL
[2]
  Activity: 0.24 mL
[3]
  Activity: 0.2 mL
[4]
  Activity: 0.19 mL
[5]
  Activity: 82.88%
[6]
  Activity: 86.77%
[7]
  Activity: 88.43%
[8]
  Activity: 89.89%
[9]
  zone of inhibition at 4000 µg/mL: 16.3 mm
[10]; MTCC 96, 24 h
  MIC: 50 mg/L (≈ 103 µM)
[11]
  zone of inhibition at 4000 µg/mL: 16.3 mm
[12]; MTCC 121, 24 h
  MIC: 50 mg/L (≈ 103 µM)
[13]
  diameter of the inhibition zone (DIZ): inactive
[14]
  zone of inhibition at 4000 µg/mL: 13.3 mm
[15]; MTCC 170, 24 h
  MIC: 50 mg/L (≈ 103 µM)
[16]
  zone of inhibition at 4000 µg/mL: 13 mm
[17]
  MIC: 50 mg/L (≈ 103 µM)
[18]
  DIZ: inactive

## O=C(O)c1sc(-c2cn(-c3ccccc3)nc2-c2ccc(F)cc2)nc1-c1ccccc1
[1]
  Activity: 0.14 mL
[2]
  Activity: 0.22 mL
[3]
  Activity: 0.37 mL
[4]
  Activity: 0.18 mL
[5]
  Activity: 87.38%
[6]
  Activity: 81.81%
[7]
  Activity: 78.61%
[8]
  Activity: 90.42%
[9]
  zone of inhibition at 4000 µg/mL: 20.3 mm
[10]; MTCC 96, 24 h
  MIC: 25 mg/L (≈ 56.6 µM)
[11]
  zone of inhibition at 4000 µg/mL: 18.3 mm
[12]; MTCC 121, 24 h
  MIC: 25 mg/L (≈ 56.6 µM)
[13]
  diameter of the inhibition zone (DIZ): inactive
[14]
  zone of inhibition at 4000 µg/mL: > 20 mm
[15]; MTCC 170, 24 h
  MIC: 50 mg/L (≈ 113 µM)
[16]
  zone of inhibition at 4000 µg/mL: 21.3 mm
[17]
  MIC: 25 mg/L (≈ 56.6 µM)
[18]
  DIZ: inactive
